The text below walks through data of PubChem BioAssay (NCI).

Among the test systems are CAKI-1 renal; NCI-H23 lung; DU-145 prostate; LOX IMVI melanoma; A549 NSCLC; ACHN renal; 786-0 renal; HCC-2998 colon.
Assay in all cases: DTP human tumour cell line panel, 48 h

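Protocol summary: plate cells (96-well), add compound at 5 concentrations, incubate 48 h, interpolate endpoints linearly. Here, GI50 denotes the concentration required for 50% inhibition of growth. TGI: total growth inhibition.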

One may read the GI50 as the concentration that inhibits growth by half. A word on the TGI: it is the concentration giving total growth inhibition. Read a high TGI as lower sensitivity of the cells. As to `O=C(Nc1ccc(Oc2ccc(F)cc2)cc1)[C@@H]1C[C@@H](Cc2ccc(F)cc2)CN1C(=O)Cn1ccnn1`, the GI50 is 11.5 µM in the test on CAKI-1 renal; 12.1 µM in the test on NCI-H23 lung; 13.6 µM in the test with DU-145 prostate; 7.28 µM in the test on LOX IMVI melanoma; 5.21 µM in the test on A549 NSCLC; 4.93 µM with ACHN renal. The GI50 with 786-0 renal was 10.5 µM; in the test with HCC-2998 colon, 7.17 µM. Also, the TGI with CAKI-1 renal was 51.7 µM; in the test on NCI-H23 lung it was 35.5 µM; with DU-145 prostate, over 85.7 µM; in the test on LOX IMVI melanoma it was 22.2 µM; with A549 NSCLC, over 50.4 µM; in the test on ACHN renal it was 25.2 µM. The figures for the TGI in the test on 786-0 renal and with HCC-2998 colon were 34.2 µM and 21.8 µM, respectively.

Consider `O=C1CC(c2c[nH]c3ccc(F)cc23)C(=O)N1` (stereo not drawn), for which the GI50 in the test with CAKI-1 renal, in the test with NCI-H23 lung, with DU-145 prostate, with LOX IMVI melanoma, in the test with A549 NSCLC and in the test with ACHN renal was over 100 µM throughout. Besides, the GI50 with 786-0 renal and in the test on HCC-2998 colon was over 100 µM throughout. In addition, the TGI with CAKI-1 renal, in the test on NCI-H23 lung, with DU-145 prostate, in the test on LOX IMVI melanoma, in the test with A549 NSCLC and in the test with ACHN renal was over 100 µM throughout. For the same compound, the TGI in the test with 786-0 renal and in the test on HCC-2998 colon was over 100 µM in each case.

With `COc1cc(CNCCCCCCN2C(=O)c3cccc4cccc(c34)C2=O)ccc1O`, the GI50 with CAKI-1 renal was 8.44 µM; in the test on NCI-H23 lung it was 10.8 µM; with DU-145 prostate, 6.08 µM; in the test on LOX IMVI melanoma, 1.86 µM; with A549 NSCLC, 5.56 µM; in the test with ACHN renal it was 5.38 µM. For the same compound, the values for the GI50 with 786-0 renal and in the test on HCC-2998 colon were 5.59 µM and 11.2 µM, respectively. Also, the TGI in the test with CAKI-1 renal amounted to 26.9 µM; with NCI-H23 lung, 25.2 µM; in the test with DU-145 prostate, 18.9 µM; with LOX IMVI melanoma it was 3.68 µM; with A549 NSCLC, 19.4 µM; in the test on ACHN renal it was 18.4 µM. Further, the TGI with 786-0 renal is 19.9 µM; with HCC-2998 colon it was 24.6 µM.

As to `COc1ccc(-c2cc(=O)c3c(O)c(OC)c(OC)c(OC)c3o2)cc1OC`, the TGI in the test on CAKI-1 renal, with NCI-H23 lung, in the test on DU-145 prostate, in the test on LOX IMVI melanoma, in the test on A549 NSCLC and in the test with ACHN renal was over 100 µM each time. Besides, the TGI with 786-0 renal and with HCC-2998 colon was over 100 µM in each case.

For the compound `O=C1NC(=NCc2ccccc2Cl)S/C1=C\c1ccc2ncccc2c1`, the GI50 in the test on CAKI-1 renal is 4.83 µM; with NCI-H23 lung it was 13.5 µM; in the test with DU-145 prostate, 11.2 µM; in the test on LOX IMVI melanoma, 8.86 µM; with A549 NSCLC, 8.5 µM; in the test on ACHN renal it was 9.54 µM. The GI50 in the test with 786-0 renal is 16.3 µM; in the test on HCC-2998 colon it was over 25 µM. In addition, the TGI with CAKI-1 renal is over 19.5 µM; in the test with NCI-H23 lung it was over 25 µM; with DU-145 prostate, over 25 µM; in the test on LOX IMVI melanoma it was over 25 µM; in the test on A549 NSCLC, over 25 µM; with ACHN renal it was over 25 µM. The concentration for total growth inhibition (TGI) in the test with 786-0 renal and in the test on HCC-2998 colon was over 25 µM each time.

In the case of `O=C1NC(=NCCc2ccc(F)cc2)S/C1=C\c1ccc2ncccc2c1`, the GI50 in the test with CAKI-1 renal, with NCI-H23 lung, with DU-145 prostate, in the test on LOX IMVI melanoma, in the test on A549 NSCLC and with ACHN renal was over 25 µM each time. Further, the GI50 in the test with 786-0 renal and in the test on HCC-2998 colon was over 25 µM throughout. Also, the TGI with CAKI-1 renal, with NCI-H23 lung, in the test on DU-145 prostate, in the test with LOX IMVI melanoma, in the test with A549 NSCLC and in the test with ACHN renal was over 25 µM each time. Further, the concentration for total growth inhibition (TGI) with 786-0 renal and in the test on HCC-2998 colon was over 25 µM each time.

`NS(=O)(=O)c1ccc(Nc2cc(-c3ccc(O)c(F)c3)[nH]n2)cc1`: the GI50 in the test on CAKI-1 renal, in the test on NCI-H23 lung, in the test with DU-145 prostate, in the test with LOX IMVI melanoma, in the test on A549 NSCLC and in the test on ACHN renal was over 25 µM each time. Moreover, the GI50 with 786-0 renal and with HCC-2998 colon was over 25 µM throughout. Further, the TGI in the test with CAKI-1 renal, in the test with NCI-H23 lung, in the test with DU-145 prostate, in the test on LOX IMVI melanoma, with A549 NSCLC and in the test with ACHN renal was over 25 µM each time. The total growth inhibition concentration (TGI) in the test on 786-0 renal and in the test with HCC-2998 colon was over 25 µM throughout.

In the case of `COc1ccc2c(c1)OC(N)=C(C#N)C2c1cc(OC)c(OC)c(OC)c1` (stereo not drawn), the concentration for 50% growth inhibition (GI50) in the test on CAKI-1 renal is 0.107 µM; in the test on NCI-H23 lung, 0.0362 µM; in the test on DU-145 prostate it was 0.0279 µM; in the test on LOX IMVI melanoma it was 0.0346 µM; in the test on A549 NSCLC, 0.0401 µM; in the test with ACHN renal, 0.0691 µM. The GI50 in the test with 786-0 renal was 0.0538 µM; with HCC-2998 colon, 0.0398 µM. The TGI in the test on CAKI-1 renal was over 100 µM; in the test with NCI-H23 lung, over 47.7 µM; in the test with DU-145 prostate, 0.0802 µM; in the test on LOX IMVI melanoma, over 100 µM; in the test on A549 NSCLC it was over 100 µM; in the test on ACHN renal, over 100 µM. For the same compound, the TGI in the test with 786-0 renal and in the test with HCC-2998 colon was over 100 µM throughout.

Consider `CCCn1c2c(c3ccccc3c1=O)C(=O)c1ccccc1-2`, for which the total growth inhibition concentration (TGI) with CAKI-1 renal, with NCI-H23 lung, in the test with DU-145 prostate, in the test with LOX IMVI melanoma, with A549 NSCLC and in the test with ACHN renal was over 100 µM throughout. Moreover, the TGI in the test on 786-0 renal and with HCC-2998 colon was over 100 µM each time.
